Data as given in US10448639B2, “Fungicidal pyrazoles” (FMC CORPORATION, priority 2009, dated 2019).
Read-outs that look alike come from different tables or passages of the source.

Assays:
[1] = test system: Septoria nodorum; assay: Test F: Septoria glume blotch, preventive spray on wheat seedlings, visual disease rating; settings: for Test F disease control rating / Test F rating (% disease control): 100 = 100% disease control; for Test F disease control rating: 0 = no disease control relative to controls; for pest or weed control at 200 µg/mL: Parastagonospora nodorum, in Triticum aestivum, 192 h
[2] = test system: Puccinia recondita f. sp. tritici; assay: Test H: wheat leaf rust, curative spray on inoculated wheat seedlings, visual disease rating; settings: for Test H disease control rating / Test H rating (% disease control): wheat leaf rust, 100 = 100% disease control; for Test H disease control rating: sprayed after inoculation, 0 = no disease control relative to controls; for pest or weed control at 200 µg/mL: 144 h
[3] = test system: Erysiphe graminis f sp. tritici; assay: Test J: wheat powdery mildew, preventive spray on wheat seedlings, visual disease rating; settings: for Test J disease control rating / Test J rating (% disease control): wheat powdery mildew, 100 = 100% disease control; for Test J disease control rating: sprayed the day before inoculation, 0 = no disease control relative to controls; for pest or weed control at 200 µg/mL: Blumeria graminis, in Triticum aestivum, 192 h
[4] = test system: Alternaria solani; assay: Test C: tomato early blight, preventive spray on tomato seedlings, visual disease rating; settings: for Test C disease control rating / Test C rating (% disease control): tomato early blight, 100 = 100% disease control; for Test C disease control rating: 0 = no disease control relative to controls; for pest or weed control at 200 µg/mL: Alternaria solani, in Solanum lycopersicum, 168 h
[5] = test system: Septoria tritici; assay: Test G: wheat leaf blotch, preventive spray on wheat seedlings, visual disease rating; settings: for Test G disease control rating / Test G rating (% disease control): wheat leaf blotch, 100 = 100% disease control; for Test G disease control rating: sprayed the day before inoculation, 0 = no disease control relative to controls; for pest or weed control at 200 µg/mL: Zymoseptoria tritici, in Triticum aestivum, 504 h
[6] = test system: Puccinia recondita f. sp. tritici; assay: Test I: wheat leaf rust, preventive spray on wheat seedlings, visual disease rating; settings: for Test I disease control rating / Test I rating (% disease control): wheat leaf rust, 100 = 100% disease control; for Test I disease control rating: sprayed the day before inoculation, 0 = no disease control relative to controls; for pest or weed control at 200 µg/mL: 192 h
Description: (§1) General protocol for preparing test suspensions for Tests A-J: the test compounds were first dissolved in acetone in an amount equal to 3% of the final volume and then suspended at the desired concentration (in ppm) in acetone and purified water (50/50 mix by volume) containing 250 ppm of the surfactant Trem® 014 (polyhydric alcohol esters). The resulting test suspensions were then used in Tests A-J. Spraying a 200 ppm test suspension to the point of run-off on the test plants was the equivalent of a rate of 500 g/ha. Unless otherwise indicated, the rating values indicate a 200 ppm test suspension was used. (An asterisk “*” next to the rating value indicates a 40 ppm test suspension was used.)
The test suspension was sprayed to the point of run-off on wheat seedlings. The following day the seedlings were inoculated with a spore suspension of Puccinia recondita f. sp. tritici (the causal agent of wheat leaf rust) and incubated in a saturated atmosphere at 20° C. for 24 h, and then moved to a growth chamber at 20° C. for 7 days, after which time visual disease ratings were made
A dash (-) indicates no test results.

[7] = test system: Botrytis cinerea; assay: Test B: tomato Botrytis, preventive spray on tomato seedlings, visual disease rating; settings: for Test B disease control rating / Test B rating (% disease control): tomato Botrytis, 100 = 100% disease control; for Test B disease control rating: 0 = no disease control relative to controls; for pest or weed control at 200 µg/mL: Botrytis cinerea, in Solanum lycopersicum, 120 h
Description: as §1
The test suspension was sprayed to the point of run-off on tomato seedlings. The following day the seedlings were inoculated with a spore suspension of Botrytis cinerea (the causal agent of tomato Botrytis) and incubated in saturated atmosphere at 20° C. for 48 h, and then moved to a growth chamber at 24° C. for 3 additional days, after which time visual disease ratings were made.

[8] = Septoria glume blotch on wheat, preventive spray, 0 = no control
[9] = preventive spray, 0 = no control
[10] = read-out: Test F disease control rating
[11] = read-out: Test H disease control rating
[12] = read-out: Test J disease control rating
[13] = read-out: Test C disease control rating
[14] = read-out: Test G disease control rating
[15] = read-out: Test I disease control rating
[16] = read-out: Test B disease control rating
[17] = Septoria glume blotch, 0 = no control relative to controls
[18] = curative, 0 = no control relative to controls
[19] = 0 = no control relative to controls
[20] = preventive, 0 = no control relative to controls

Cc1nn(C)c(Nc2ccc(Cl)cc2Cl)c1-c1c(Cl)cccc1Cl [compound 327]
Test F disease control rating ([1]; Septoria glume blotch on wheat): 0% | Test H disease control rating [2]: 0% | Test J disease control rating [3]: 99% | Test C disease control rating [4]: 0% | Test G disease control rating [5]: 100% | Test I disease control rating [6]: 96% | Test B disease control rating [7]: 99%

CCn1nc(C)c(-c2ccc(Cl)cc2Cl)c1Nc1ccc(F)cc1F [compound 70]
Test F rating (% disease control) [1, 8]: 0% | Test H rating (% disease control) ([2]; curative spray, 0 = no control): 41% | Test J rating (% disease control) [3, 9]: 98% | Test C rating (% disease control) [4, 9]: 0% | Test G rating (% disease control) [5, 9]: 99% | Test I rating (% disease control) [6, 9]: 85% | Test B rating (% disease control) [7, 9]: 99%

Cc1nn(C)c(Nc2c(F)cccc2F)c1-c1ccc(F)cc1Cl [Compound 172, 4-(2-chloro-4-fluorophenyl)-N-(2,6-difluorophenyl)-1,3-dimethyl-1H-pyrazol-5-amine]
pest or weed control at 200 µg/mL ([1]; read-out: Test F rating (% disease control)): 87% | pest or weed control at 200 µg/mL ([2]; read-out: Test H rating (% disease control)): 0% | pest or weed control at 200 µg/mL ([3]; read-out: Test J rating (% disease control)): 100% | pest or weed control at 200 µg/mL ([4]; read-out: Test C rating (% disease control)): 100% | pest or weed control at 200 µg/mL ([5]; read-out: Test G rating (% disease control)): 100% | pest or weed control at 200 µg/mL ([6]; read-out: Test I rating (% disease control)): 99% | pest or weed control at 200 µg/mL ([7]; read-out: Test B rating (% disease control)): 100%

Cc1nn(C)c(Nc2c(F)cc(Cl)cc2F)c1-c1ccc(C#N)cc1Cl [Compound 336, 3-chloro-4-[5-[(4-chloro-2,6-difluorophenyl)amino]-1,3-dimethyl-1H-pyrazol-4-yl]-benzonitrile]
pest or weed control at 200 µg/mL [1, 10]: 95% | pest or weed control at 200 µg/mL [2, 11]: 94% | pest or weed control at 200 µg/mL [3, 12]: 99% | pest or weed control at 200 µg/mL [4, 13]: 97% | pest or weed control at 200 µg/mL [5, 14]: 100% | pest or weed control at 200 µg/mL [6, 15]: 100% | pest or weed control at 200 µg/mL [7, 16]: 100%

Cc1nn(C)c(Oc2ccc([N+](=O)[O-])cc2Cl)c1-c1ccc(F)cc1Cl [compound 119]
Test F rating (% disease control) [1, 8]: 0% | Test H rating (% disease control) ([2]; curative spray, 0 = no control): 16% | Test J rating (% disease control) [3, 9]: 96% | Test C rating (% disease control) [4, 9]: 0% | Test G rating (% disease control) [5, 9]: 100% | Test I rating (% disease control) [6, 9]: 99% | Test B rating (% disease control) [7, 9]: 100%

COc1ccc(Nc2c(-c3c(F)cc(F)cc3F)c(C)nn2C)cn1 [compound 94]
Test F rating (% disease control) [1, 8]: 29% | Test H rating (% disease control) ([2]; curative spray, 0 = no control): 0% | Test J rating (% disease control) [3, 9]: 0% | Test C rating (% disease control) [4, 9]: 70% | Test G rating (% disease control) [5, 9]: 98% | Test I rating (% disease control) [6, 9]: 9% | Test B rating (% disease control) [7, 9]: 99%

COc1ccc(Nc2c(-c3ccc(Cl)cc3)c(C)nn2C)cc1 [compound 56]
Test F rating (% disease control) [1, 8]: 0% | Test H rating (% disease control) ([2]; curative spray, 0 = no control): 0% | Test J rating (% disease control) [3, 9]: 64% | Test C rating (% disease control) [4, 9]: 0% | Test G rating (% disease control) [5, 9]: 99% | Test I rating (% disease control) [6, 9]: 28% | Test B rating (% disease control) [7, 9]: 43%

Cc1nn(C)c(Nc2ccc(F)cc2)c1-c1c(Cl)cccc1Cl [compound 337]
Test F disease control rating ([1]; Septoria glume blotch on wheat): 0% | Test H disease control rating [2]: 9% | Test J disease control rating [3]: 98% | Test C disease control rating [4]: 0% | Test G disease control rating [5]: 99% | Test I disease control rating [6]: 41% | Test B disease control rating [7]: 99%

Cc1nn(C)c(Nc2c(F)ccc(F)c2F)c1-c1ccc(F)cc1Cl [compound 171]
Test F rating (% disease control) [1, 17]: 0% | Test H rating (% disease control) [2, 18]: 68% | Test J rating (% disease control) [3, 19]: 100% | Test C rating (% disease control) [4, 19]: 97% | Test G rating (% disease control) [5, 19]: 97% | Test I rating (% disease control) [6, 20]: 99% | Test B rating (% disease control) [7, 19]: 100%

CCOc1ccc(Nc2c(-c3ccc(F)cc3Cl)c(C)nn2C)c(Cl)c1 [compound 325]
Test F disease control rating ([1]; Septoria glume blotch on wheat): 0% | Test H disease control rating [2]: 0% | Test J disease control rating [3]: 99% | Test C disease control rating [4]: 0% | Test G disease control rating [5]: 100% | Test I disease control rating [6]: 97% | Test B disease control rating [7]: 100%

Cc1nn(C)c(Nc2c(Cl)cc(F)cc2Cl)c1-c1ccc(Cl)cc1Cl [compound 363]
Test F disease control rating ([1]; Septoria glume blotch on wheat): 0% | Test H disease control rating [2]: 0% | Test J disease control rating [3]: 43% | Test C disease control rating [4]: 0% | Test G disease control rating [5]: 99% | Test I disease control rating [6]: 96% | Test B disease control rating [7]: 65%

C=CCN(c1c(F)cc(OC)cc1F)c1c(-c2ccc(F)cc2Cl)c(C)nn1C [compound 159]
Test F rating (% disease control) [1, 17]: 0% | Test H rating (% disease control) [2, 18]: 74% | Test J rating (% disease control) [3, 19]: 100% | Test C rating (% disease control) [4, 19]: 0% | Test G rating (% disease control) [5, 19]: 100% | Test I rating (% disease control) [6, 20]: 99% | Test B rating (% disease control) [7, 19]: 99%

Cc1nn(C)c(Oc2ccc(C#N)cc2Cl)c1-c1c(F)cccc1F [Compound 358, 3-chloro-4-[[4-(2,6-difluorophenyl)-1,3-dimethyl-1H-pyrazol-5-yl]oxy]benzonitrile]
pest or weed control at 200 µg/mL [1, 10]: 0% | pest or weed control at 200 µg/mL [2, 11]: 0% | pest or weed control at 200 µg/mL [3, 12]: 97% | pest or weed control at 200 µg/mL [4, 13]: 0% | pest or weed control at 200 µg/mL [5, 14]: 100% | pest or weed control at 200 µg/mL [6, 15]: 97% | pest or weed control at 200 µg/mL [7, 16]: 99%

COc1cc(F)c(-c2c(C)nn(C)c2Oc2c(F)cc(Br)cc2F)c(F)c1 [compound 90]
Test F rating (% disease control) [1, 8]: 84% | Test H rating (% disease control) ([2]; curative spray, 0 = no control): 0% | Test J rating (% disease control) [3, 9]: 100% | Test C rating (% disease control) [4, 9]: 95% | Test G rating (% disease control) [5, 9]: 100% | Test I rating (% disease control) [6, 9]: 98% | Test B rating (% disease control) [7, 9]: 99%

Cc1nn(C)c(Oc2c(F)cc(C#N)cc2F)c1-c1cc(C(F)(F)F)ccc1Cl [compound 307]
Test F disease control rating ([1]; Septoria glume blotch on wheat): 0% | Test H disease control rating [2]: 0% | Test J disease control rating [3]: 0% | Test C disease control rating [4]: 0% | Test G disease control rating [5]: 0% | Test I disease control rating [6]: 0% | Test B disease control rating [7]: 0%

COc1cc(OC)cc(-c2c(C)nn(C)c2Oc2c(F)cc(C#N)cc2F)c1 [compound 85]
Test F rating (% disease control) [1, 8]: 0% | Test H rating (% disease control) ([2]; curative spray, 0 = no control): 0% | Test J rating (% disease control) [3, 9]: 0% | Test C rating (% disease control) [4, 9]: 0% | Test G rating (% disease control) [5, 9]: 17% | Test I rating (% disease control) [6, 9]: 19% | Test B rating (% disease control) [7, 9]: 0%

COc1cc(F)c(-c2c(C)nn(C)c2Oc2ccc(Br)c(C#N)c2)c(F)c1 [compound 258]
Test F rating (% disease control) [1, 17]: 0% | Test H rating (% disease control) [2, 18]: 0% | Test J rating (% disease control) [3, 19]: 90% | Test C rating (% disease control) [4, 19]: 9% | Test G rating (% disease control) [5, 19]: 89% | Test I rating (% disease control) [6, 20]: 68% | Test B rating (% disease control) [7, 19]: 41%

COc1cc(F)c(-c2c(C)nn(C)c2Oc2ccc(Cl)c(C#N)c2)c(F)c1 [compound 218]
Test F rating (% disease control) [1, 17]: 0% | Test H rating (% disease control) [2, 18]: 17% | Test J rating (% disease control) [3, 19]: 87% | Test C rating (% disease control) [4, 19]: 0% | Test G rating (% disease control) [5, 19]: 99% | Test I rating (% disease control) [6, 20]: 92% | Test B rating (% disease control) [7, 19]: 94%

Cc1nn(C)c(Nc2c(F)cc(C#N)cc2F)c1-c1c(F)cccc1Cl [compound 192]
Test F rating (% disease control) [1, 17]: 73% | Test H rating (% disease control) [2, 18]: 0% | Test J rating (% disease control) [3, 19]: 99% | Test C rating (% disease control) [4, 19]: 100% | Test G rating (% disease control) [5, 19]: 100% | Test I rating (% disease control) [6, 20]: 99% | Test B rating (% disease control) [7, 19]: 97%

COc1ccc(Nc2c(-c3ccc(Cl)cc3Cl)c(C)nn2C)cc1OC [compound 74]
Test F rating (% disease control) [1, 8]: 0% | Test H rating (% disease control) ([2]; curative spray, 0 = no control): 4% | Test J rating (% disease control) [3, 9]: 0% | Test C rating (% disease control) [4, 9]: 0% | Test G rating (% disease control) [5, 9]: 25% | Test I rating (% disease control) [6, 9]: 0% | Test B rating (% disease control) [7, 9]: 0%
